Measurements from PubChem BioAssay AID248 (DTP/NCI, 2004).
Several values for one entry are separate records, joined by “and”; a condition that tells them apart may be missing. Equal entries are not always repeated. Inconclusive results and toxic doses are left out.

Tested on: L1210 leukemia ip in BDF1 mice, survival T/C
Assay: NCI In Vivo Anticancer Drug Screen. Data for tumor model L1210 Leukemia (intraperitoneal) in B6D2F1 (BDF1) mice
Conditions: endpoint: mean survival time, higher = longer survival
In short: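 Antitumor effect is assessed in tumor-bearing animals. Survival in the compound arm is compared with a vehicle-dosed control arm and expressed as their quotient.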

[1] = dose: 100.0 mg/kg/injection, schedule: Q01DX001 (ip), vehicle: Klucel (hydroxypropylcellulose) (HPC)
[2] = dose: 200.0 mg/kg/injection, schedule: Q01DX001 (ip), vehicle: Klucel (hydroxypropylcellulose) (HPC)
[3] = dose: 100.0 mg/kg/injection, schedule: Q04DX003 (ip), vehicle: saline with Tween-80
[4] = dose: 200.0 mg/kg/injection, schedule: Q04DX003 (ip), vehicle: saline with Tween-80
[5] = dose: 400.0 mg/kg/injection, schedule: Q04DX003 (ip), vehicle: saline with Tween-80
[6] = dose: 75.0 mg/kg/injection, schedule: Q04DX003 (ip), vehicle: saline
[7] = dose: 100.0 mg/kg/injection, schedule: Q01DX001 (ip), vehicle: saline
[8] = dose: 200.0 mg/kg/injection, schedule: Q01DX001 (ip), vehicle: saline
[9] = dose: 400.0 mg/kg/injection, schedule: Q01DX001 (ip), vehicle: saline
[10] = dose: 100.0 mg/kg/injection, schedule: Q01DX009 (ip), vehicle: Klucel (hydroxypropylcellulose) (HPC)
[11] = dose: 200.0 mg/kg/injection, schedule: Q01DX009 (ip), vehicle: Klucel (hydroxypropylcellulose) (HPC)
[12] = dose: 400.0 mg/kg/injection, schedule: Q01DX009 (ip), vehicle: Klucel (hydroxypropylcellulose) (HPC)
[13] = dose: 50.0 mg/kg/injection, schedule: Q01DX001 (ip), vehicle: saline
[14] = dose: 100.0 mg/kg/injection, schedule: Q04DX003 (ip), vehicle: Klucel (hydroxypropylcellulose) (HPC)
[15] = dose: 200.0 mg/kg/injection, schedule: Q04DX003 (ip), vehicle: Klucel (hydroxypropylcellulose) (HPC)
[16] = dose: 400.0 mg/kg/injection, schedule: Q04DX003 (ip), vehicle: Klucel (hydroxypropylcellulose) (HPC)
[17] = dose: 100.0 mg/kg/injection, schedule: Q04DX002 (ip), vehicle: Klucel (hydroxypropylcellulose) (HPC)
[18] = dose: 200.0 mg/kg/injection, schedule: Q04DX002 (ip), vehicle: Klucel (hydroxypropylcellulose) (HPC)
[19] = dose: 400.0 mg/kg/injection, schedule: Q04DX002 (ip), vehicle: Klucel (hydroxypropylcellulose) (HPC)

SMILES: CC(=O)n1[nH]c(=O)c2ccccc2c1=O
- T/C [1]: 103 % of control
- T/C [2]: 105 % of control
- T/C (dose: 400.0 mg/kg/injection, schedule: Q01DX001 (ip), vehicle: Klucel (hydroxypropylcellulose) (HPC)): 103 % of control

SMILES: COC(OC)c1nc(NC(C)=O)[nH]c(=O)c1Cc1ccc(N)cc1
- T/C (dose: 100.0 mg/kg/injection, schedule: Q01DX009 (ip), vehicle: saline with Tween-80): 96 % of control
- T/C [3]: 94 % of control
- T/C (dose: 200.0 mg/kg/injection, schedule: Q01DX009 (ip), vehicle: saline with Tween-80): 89 % of control
- T/C [4]: 96 % of control
- T/C (dose: 400.0 mg/kg/injection, schedule: Q01DX009 (ip), vehicle: saline with Tween-80): 97 % of control
- T/C [5]: 110 % of control

SMILES: CCN(CC)CCCC(C)Nc1nnc2c(=O)n(C)c(=O)n(C)c2n1 (stereo not drawn)
- T/C [6]: 89 % of control
- T/C (dose: 150.0 mg/kg/injection, schedule: Q04DX003 (ip), vehicle: saline): 90 % of control
- T/C (dose: 300.0 mg/kg/injection, schedule: Q04DX003 (ip), vehicle: saline): 87 % of control

SMILES: OC(COc1cccc2ccccc12)CN1CCN(c2ccc(Cl)cc2)CC1 (stereo not drawn)
- T/C [7]: 98 % of control
- T/C [8]: 101 % of control
- T/C [9]: 97 % of control

SMILES: C1=C(c2ccccc2)CCN(C2(c3ccccc3)CCCCC2)C1
- T/C [7]: 101 % of control
- T/C [8]: 93 % of control
- T/C [9]: 95 % of control

SMILES: COc1ccc(/C=C2\N=C(c3ccc([N+](=O)[O-])cc3)OC2=O)cc1
- T/C [10]: 93 % of control
- T/C [11]: 91 % of control
- T/C [12]: 95 % of control

SMILES: CCOC(=O)c1cnc(SCc2ccccc2Cl)nc1N1CC1
- T/C (dose: 12.5 mg/kg/injection, schedule: Q01DX001 (ip), vehicle: saline): 100 % of control
- T/C (dose: 12.5 mg/kg/injection, schedule: Q04DX003 (ip), vehicle: saline): 100 % of control
- T/C (dose: 25.0 mg/kg/injection, schedule: Q01DX001 (ip), vehicle: saline): 98 % of control
- T/C (dose: 25.0 mg/kg/injection, schedule: Q04DX003 (ip), vehicle: saline): 101 % of control
- T/C (dose: 28.05 mg/kg/injection, schedule: Q01DX009 (ip), vehicle: acetone): 92 % of control
- T/C (dose: 42.5 mg/kg/injection, schedule: Q01DX009 (ip), vehicle: acetone): 112 % of control
- T/C [13]: 98 % of control
- T/C (dose: 50.0 mg/kg/injection, schedule: Q04DX003 (ip), vehicle: saline): 98 % of control and 100 % of control and 113 % of control
- T/C (dose: 63.75 mg/kg/injection, schedule: Q01DX009 (ip), vehicle: acetone): 117 % of control
- T/C [6]: 102 % of control and 117 % of control
- T/C (dose: 110.0 mg/kg/injection, schedule: Q04DX003 (ip), vehicle: saline): 104 % of control and 120 % of control
- T/C (dose: 115.0 mg/kg/injection, schedule: Q04DX003 (ip), vehicle: saline): 122 % of control
- T/C (dose: 170.0 mg/kg/injection, schedule: Q04DX003 (ip), vehicle: saline): 115 % of control

SMILES: COC(=O)c1ccccc1NC(=O)Nc1ccccc1
- T/C [10]: 108 % of control
- T/C [14]: 101 % of control
- T/C [11]: 101 % of control
- T/C [15]: 101 % of control
- T/C [12]: 100 % of control
- T/C [16]: 98 % of control

SMILES: CCN(CC)CCCOP(=O)(N(CC)CC)N(CCCl)CCCl (stereo not drawn)
- T/C (dose: 200.0 mg/kg/injection, schedule: Q01DX001 (ip), vehicle: saline with Tween-80): 101 % of control

SMILES: COC1=CCC2C(=O)OC(=O)C2C1 (stereo not drawn)
- T/C (dose: 25.0 mg/kg/injection, schedule: Q01DX009 (ip), vehicle: saline): 90 % of control
- T/C (dose: 50.0 mg/kg/injection, schedule: Q01DX009 (ip), vehicle: saline): 94 % of control
- T/C (dose: 100.0 mg/kg/injection, schedule: Q01DX009 (ip), vehicle: saline): 100 % of control
- T/C (dose: 200.0 mg/kg/injection, schedule: Q01DX009 (ip), vehicle: saline): 109 % of control
- T/C (dose: 400.0 mg/kg/injection, schedule: Q01DX009 (ip), vehicle: saline): 100 % of control

SMILES: O=C(Nc1ccc(CCO)cc1)Nc1cccc(Cl)c1Cl
- T/C [10]: 91 % of control
- T/C [11]: 91 % of control
- T/C [12]: 100 % of control

SMILES: O=C(Cc1c(F)c(F)c(F)c(F)c1F)Nc1ccc(-c2nc3ccccc3s2)cc1
- T/C [1]: 87 % of control
- T/C [10]: 115 % of control
- T/C [17]: 104 % of control and 115 % of control
- T/C [14]: 95 % of control
- T/C [2]: 90 % of control
- T/C [11]: 105 % of control
- T/C [18]: 93 % of control and 95 % of control
- T/C [15]: 97 % of control
- T/C [19]: 95 % of control and 96 % of control
- T/C [16]: 97 % of control

SMILES: O=P(Oc1ccc(OP(=O)(N2CC2)N2CC2)cc1)(N1CC1)N1CC1
- T/C (dose: 9.0 mg/kg/injection, schedule: Q01DX009 (ip), vehicle: saline): 96 % of control
- T/C (dose: 9.5 mg/kg/injection, schedule: Q01DX001 (ip), vehicle: saline): 98 % of control
- T/C (dose: 13.0 mg/kg/injection, schedule: Q01DX009 (ip), vehicle: saline): 110 % of control
- T/C (dose: 19.0 mg/kg/injection, schedule: Q01DX001 (ip), vehicle: saline): 110 % of control
- T/C (dose: 20.0 mg/kg/injection, schedule: Q01DX009 (ip), vehicle: saline): 104 % of control
- T/C (dose: 22.0 mg/kg/injection, schedule: Q01DX Z (ip), vehicle: other): 103 % of control
- T/C (dose: 32.0 mg/kg/injection, schedule: Q01DX009 (ip), vehicle: saline): 100 % of control
- T/C (dose: 33.0 mg/kg/injection, schedule: Q01DX Z (ip), vehicle: other): 104 % of control
- T/C (dose: 38.0 mg/kg/injection, schedule: Q01DX001 (ip), vehicle: saline): 102 % of control
- T/C (dose: 50.0 mg/kg/injection, schedule: Q01DX Z (ip), vehicle: other): 114 % of control
- T/C (dose: 54.0 mg/kg/injection, schedule: Q01DX009 (ip), vehicle: saline): 186 % of control
- T/C (dose: 75.0 mg/kg/injection, schedule: Q01DX Z (ip), vehicle: other): 123 % of control
- T/C (dose: 90.0 mg/kg/injection, schedule: Q01DX009 (ip), vehicle: saline): 166 % of control
- T/C (dose: 150.0 mg/kg/injection, schedule: Q01DX009 (ip), vehicle: saline): 101 % of control
- T/C (dose: 300.0 mg/kg/injection, schedule: Q01DX001 (ip), vehicle: saline): 153 % of control

SMILES: CCCCCCCCCCCCC(C)C(=O)O (stereo not drawn)
- T/C (dose: 25.0 mg/kg/injection, schedule: Q04DX002 (ip), vehicle: Klucel (hydroxypropylcellulose) (HPC)): 96 % of control
- T/C (dose: 50.0 mg/kg/injection, schedule: Q04DX002 (ip), vehicle: Klucel (hydroxypropylcellulose) (HPC)): 93 % of control
- T/C [10]: 105 % of control
- T/C [17]: 101 % of control
- T/C [11]: 91 % of control
- T/C [18]: 98 % of control
- T/C [12]: 91 % of control
- T/C [19]: 98 % of control

SMILES: COc1cc([N+](=O)[O-])ccc1NC(=O)Nc1cc(Cl)c(Cl)cc1C
- T/C [10]: 94 % of control
- T/C [11]: 105 % of control
- T/C [12]: 91 % of control

SMILES: CCOC1(OCC)C([N+](=O)[O-])=CC(=[N+]([O-])O)C=C1[N+](=O)[O-]
- T/C [13]: 102 % of control
- T/C [7]: 98 % of control
- T/C [8]: 98 % of control
- T/C [9]: 101 % of control

SMILES: O=C1c2cc([N+](=O)[O-])ccc2-c2cc(Cl)ccc21
- T/C [3]: 97 % of control
- T/C [4]: 97 % of control
- T/C [5]: 97 % of control

SMILES: O=[N+]([O-])c1ccc(OCCCCOc2ccccc2)c(Cl)c1
- T/C [14]: 95 % of control
- T/C [15]: 96 % of control
- T/C [16]: 91 % of control

SMILES: CCOC(=O)c1nc(N)nc(N)c1-c1ccc(Cl)cc1
- T/C (dose: 25.0 mg/kg/injection, schedule: Q01DX001 (ip), vehicle: saline with Tween-80): 98 % of control
- T/C (dose: 50.0 mg/kg/injection, schedule: Q01DX001 (ip), vehicle: saline with Tween-80): 104 % of control
- T/C (dose: 100.0 mg/kg/injection, schedule: Q01DX001 (ip), vehicle: saline with Tween-80): 102 % of control

SMILES: CC1=CC(=O)N(CO)C1=O
- T/C (dose: 25.0 mg/kg/injection, schedule: Q04DX003 (ip), vehicle: water): 94 % of control
- T/C (dose: 50.0 mg/kg/injection, schedule: Q04DX003 (ip), vehicle: water): 98 % of control

SMILES: CC1=C/C(=N/NC(N)=O)CC(C)(C)C1
- T/C [7]: 93 % of control
- T/C [8]: 93 % of control
- T/C [9]: 98 % of control
